± gives the expanded uncertainty stated by the source.
Assay: xn = mol fraction of the nth substance listed
Conditions: 100 kPa, Liquid; for viscosity: Concentric cylinders viscometry; for mass density: Vibrating tube method

CC(=O)[O-].CCCCn1cc[n+](C)c1 [1-butyl-3-methylimidazolium acetate] + CCCC[n+]1ccn(C)c1.O=S(=O)([N-]S(=O)(=O)C(F)(F)F)C(F)(F)F
Conditions	mass density, x2 = 0 [kg/m3]	mass density, x2 = 0.25 [kg/m3]	mass density, x2 = 0.498 [kg/m3]	mass density, x2 = 0.749 [kg/m3]	viscosity, x2 = 0 [mPa·s]	viscosity, x2 = 0.25 [mPa·s]	viscosity, x2 = 0.498 [mPa·s]	viscosity, x2 = 0.749 [mPa·s]
283.15 K	1062.7 ± 1	1193.2 ± 1	1296.5 ± 1	1381.4 ± 0.9	1013.4 ± 64	577.38 ± 34	310.72 ± 17	175.1 ± 9.2
288.15 K	1059.4 ± 1	1189.4 ± 1	1292.2 ± 1	1376.8 ± 0.9	645.6 ± 39	385.58 ± 22	220.24 ± 12	129.87 ± 6.7
293.15 K	1056 ± 1	1185.6 ± 1	1288 ± 1	1372.3 ± 0.9	421.35 ± 24	265.43 ± 15	159.18 ± 8.4	101.85 ± 5.2
298.15 K	1052.8 ± 1	1181.9 ± 1	1283.8 ± 1	1367.8 ± 0.9	292.57 ± 16	189.58 ± 10	119.72 ± 6.2	76.32 ± 3.9
303.15 K	1049.7 ± 1	1178.3 ± 1	1279.7 ± 0.9	1363.3 ± 0.9	206.68 ± 11	138.72 ± 7.3	91.38 ± 4.7	60.27 ± 3
308.15 K	1046.6 ± 1	1174.7 ± 1	1275.7 ± 0.9	1358.8 ± 0.8	150.08 ± 7.9	104 ± 5.4	71.14 ± 3.6	48.44 ± 2.4
313.15 K	1043.5 ± 1	1171.1 ± 1	1271.6 ± 0.9	1354.3 ± 0.8	110.79 ± 5.8	79.57 ± 4.1	56.47 ± 2.9	40.34 ± 2
318.15 K	1040.5 ± 1	1167.5 ± 1	1267.5 ± 0.9	1349.9 ± 0.8	85.03 ± 4.4	62.28 ± 3.2	45.44 ± 2.3	32.7 ± 1.7
323.15 K	1037.5 ± 1	1163.9 ± 1	1263.5 ± 0.9	1345.4 ± 0.8	66.07 ± 3.4	49.57 ± 2.5	37.16 ± 1.9	27.36 ± 1.4
328.15 K	1034.5 ± 1	1160.3 ± 1	1259.4 ± 0.9	1341 ± 0.8	52.29 ± 2.7	40.09 ± 2	30.8 ± 1.6	23.18 ± 1.2
333.15 K	1031.5 ± 1	1156.8 ± 1	1255.4 ± 0.9	1336.6 ± 0.8	42.29 ± 2.2	33.14 ± 1.7	26.09 ± 1.3	20.11 ± 1
338.15 K	1028.5 ± 1	1153.2 ± 1	1251.4 ± 0.9	1332.3 ± 0.8	34.38 ± 1.8	27.38 ± 1.4	21.93 ± 1.1	17.14 ± 0.87
343.15 K	1025.6 ± 1	1149.7 ± 1	1247.5 ± 0.9	1327.9 ± 0.8	28.48 ± 1.5	23.05 ± 1.2	18.79 ± 0.95	14.96 ± 0.76
348.15 K	1022.6 ± 1	1146.1 ± 1	1243.5 ± 0.9	1323.6 ± 0.8	23.88 ± 1.2	19.63 ± 1	16.25 ± 0.82	13.13 ± 0.66
353.15 K	1019.7 ± 0.9	1142.6 ± 1	1239.6 ± 0.9	1319.4 ± 0.8	20.63 ± 1.1	17.21 ± 0.88	14.49 ± 0.73	11.89 ± 0.6
358.15 K	1016.7 ± 0.9	1139.1 ± 1	1235.7 ± 0.9	1315.1 ± 0.8	17.35 ± 0.89	14.64 ± 0.74	12.45 ± 0.63	10.35 ± 0.52
363.15 K	1013.9 ± 0.9	1135.6 ± 1	1231.8 ± 0.9	1310.9 ± 0.8	15 ± 0.77	12.81 ± 0.65	11.02 ± 0.56	9.272 ± 0.47
